Reference: PubChem BioAssay AID2060885 (Molecular Pharmacology Branch, DTP, NCI, 2025)

Tested on: NCI-H23 complex spheroids with HUVEC/MSC, viability
Test: Anticancer human tumor NCI-H23 cell line growth inhibition [RAS];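 note: spheroids exposed to compound for 7 days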;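 for viability, T/C: 100% = DMSO vehicle control viability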
Settings: for IC50: curve of first compound; for viability, T/C: stronger effect = lower value
Outline: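 Agents were tested in combination matrices in half-log decrements from a top concentration at or near clinical Cmax (10 microM if undetermined). Targets were multi-cell spheroids of tumour lines plus HUVEC and MSC stromal cells.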

[1] = second compound 0.000949 µM, first compound 0.000949 µM
[2] = second compound 0.000949 µM, first compound 0.003 µM
[3] = second compound 0.000949 µM, first compound 0.00949 µM
[4] = second compound 0.000949 µM, first compound 0.03 µM
[5] = second compound 0.000949 µM, first compound 0.0949 µM
[6] = second compound 0.000949 µM, first compound 0.3 µM
[7] = second compound 0.003 µM, first compound 0.000949 µM
[8] = second compound 0.003 µM, first compound 0.003 µM
[9] = second compound 0.003 µM, first compound 0.00949 µM
[10] = second compound 0.003 µM, first compound 0.03 µM
[11] = second compound 0.003 µM, first compound 0.0949 µM
[12] = second compound 0.003 µM, first compound 0.3 µM
[13] = second compound 0.00949 µM, first compound 0.000949 µM
[14] = second compound 0.00949 µM, first compound 0.003 µM
[15] = second compound 0.00949 µM, first compound 0.00949 µM
[16] = second compound 0.00949 µM, first compound 0.03 µM
[17] = second compound 0.00949 µM, first compound 0.0949 µM
[18] = second compound 0.00949 µM, first compound 0.3 µM
[19] = second compound 0.03 µM, first compound 0.000949 µM
[20] = second compound 0.03 µM, first compound 0.003 µM
[21] = second compound 0.03 µM, first compound 0.00949 µM
[22] = second compound 0.03 µM, first compound 0.03 µM
[23] = second compound 0.03 µM, first compound 0.0949 µM
[24] = second compound 0.03 µM, first compound 0.3 µM
[25] = second compound 0.0949 µM, first compound 0.000949 µM
[26] = second compound 0.0949 µM, first compound 0.003 µM
[27] = second compound 0.0949 µM, first compound 0.00949 µM
[28] = second compound 0.0949 µM, first compound 0.03 µM
[29] = second compound 0.0949 µM, first compound 0.0949 µM
[30] = second compound 0.0949 µM, first compound 0.3 µM
[31] = second compound 0.3 µM, first compound 0.000949 µM
[32] = second compound 0.3 µM, first compound 0.003 µM
[33] = second compound 0.3 µM, first compound 0.00949 µM
[34] = second compound 0.3 µM, first compound 0.03 µM
[35] = second compound 0.3 µM, first compound 0.0949 µM
[36] = second compound 0.3 µM, first compound 0.3 µM

SMILES: C=CC(=O)N1CCN(c2nc(OCC3CCCN3C)nc3c(F)c(-c4nc(N)cc(C)c4C(F)(F)F)c(Cl)cc23)C(C)C1 (stereo unspecified) + CCn1c(-c2cccnc2C(C)OC)c2c3cc(ccc31)N1CCOC(CC(NC(=O)C(C(C)C)N(C)C(=O)C3(F)CCN(C(=O)C#CC(C)(C)N(C)C)CC3)C(=O)N3CCCC(N3)C(=O)OCC(C)(C)C2)C1
- IC50 (second compound 0.000949 µM): < 3.16 nM
- IC50 (second compound 0.003 µM): < 3.16 nM
- IC50 (second compound 0.00949 µM): < 3.16 nM
- IC50 (second compound 0.03 µM): < 3.16 nM
- IC50 (second compound 0.0949 µM): < 3.16 nM
- IC50 (second compound 0.3 µM): < 3.16 nM
- viability, T/C (second compound 0.000949 µM, first compound 0.00316 µM): 34.7%
- viability, T/C (second compound 0.000949 µM, first compound 0.01 µM): 35.5%
- viability, T/C (second compound 0.000949 µM, first compound 0.0316 µM): 24.3%
- viability, T/C (second compound 0.000949 µM, first compound 0.1 µM): 28.4%
- viability, T/C (second compound 0.000949 µM, first compound 0.316 µM): 29.2%
- viability, T/C (second compound 0.000949 µM, first compound 1 µM): 25.6%
- viability, T/C (second compound 0.003 µM, first compound 0.00316 µM): 33.6%
- viability, T/C (second compound 0.003 µM, first compound 0.01 µM): 28.5%
- viability, T/C (second compound 0.003 µM, first compound 0.0316 µM): 25.6%
- viability, T/C (second compound 0.003 µM, first compound 0.1 µM): 29.4%
- viability, T/C (second compound 0.003 µM, first compound 0.316 µM): 31.5%
- viability, T/C (second compound 0.003 µM, first compound 1 µM): 27.6%
- viability, T/C (second compound 0.00949 µM, first compound 0.00316 µM): 26.8%
- viability, T/C (second compound 0.00949 µM, first compound 0.01 µM): 26.7%
- viability, T/C (second compound 0.00949 µM, first compound 0.0316 µM): 37.2%
- viability, T/C (second compound 0.00949 µM, first compound 0.1 µM): 30.9%
- viability, T/C (second compound 0.00949 µM, first compound 0.316 µM): 27.7%
- viability, T/C (second compound 0.00949 µM, first compound 1 µM): 25.9%
- viability, T/C (second compound 0.03 µM, first compound 0.00316 µM): 30.2%
- viability, T/C (second compound 0.03 µM, first compound 0.01 µM): 30.5%
- viability, T/C (second compound 0.03 µM, first compound 0.0316 µM): 35%
- viability, T/C (second compound 0.03 µM, first compound 0.1 µM): 27.2%
- viability, T/C (second compound 0.03 µM, first compound 0.316 µM): 27.1%
- viability, T/C (second compound 0.03 µM, first compound 1 µM): 29.7%
- viability, T/C (second compound 0.0949 µM, first compound 0.00316 µM): 28.5%
- viability, T/C (second compound 0.0949 µM, first compound 0.01 µM): 31.4%
- viability, T/C (second compound 0.0949 µM, first compound 0.0316 µM): 26.9%
- viability, T/C (second compound 0.0949 µM, first compound 0.1 µM): 27.3%
- viability, T/C (second compound 0.0949 µM, first compound 0.316 µM): 24.9%
- viability, T/C (second compound 0.0949 µM, first compound 1 µM): 32.7%
- viability, T/C (second compound 0.3 µM, first compound 0.00316 µM): 25.8%
- viability, T/C (second compound 0.3 µM, first compound 0.01 µM): 30%
- viability, T/C (second compound 0.3 µM, first compound 0.0316 µM): 24.4%
- viability, T/C (second compound 0.3 µM, first compound 0.1 µM): 26.2%
- viability, T/C (second compound 0.3 µM, first compound 0.316 µM): 26%
- viability, T/C (second compound 0.3 µM, first compound 1 µM): 29.3%

SMILES: CC1(C)CCC(Nc2ncc(C(F)(F)F)c(-c3c[nH]c4c(P(C)(C)=O)c(C#N)ccc34)n2)CN1 (stereo unspecified) + CCn1c(-c2cccnc2C(C)OC)c2c3cc(ccc31)N1CCOC(CC(NC(=O)C(C(C)C)N(C)C(=O)C3(F)CCN(C(=O)C#CC(C)(C)N(C)C)CC3)C(=O)N3CCCC(N3)C(=O)OCC(C)(C)C2)C1
- IC50 (second compound 0.000949 µM): < 0.949 nM
- IC50 (second compound 0.003 µM): < 0.949 nM
- IC50 (second compound 0.00949 µM): < 0.949 nM
- IC50 (second compound 0.03 µM): < 0.949 nM
- IC50 (second compound 0.0949 µM): < 0.949 nM
- IC50 (second compound 0.3 µM): < 0.949 nM
- viability, T/C [1]: 26%
- viability, T/C [2]: 21.2%
- viability, T/C [3]: 14%
- viability, T/C [4]: 16.1%
- viability, T/C [5]: 14.7%
- viability, T/C [6]: 11.3%
- viability, T/C [7]: 22.4%
- viability, T/C [8]: 17.4%
- viability, T/C [9]: 15.5%
- viability, T/C [10]: 15.2%
- viability, T/C [11]: 15%
- viability, T/C [12]: 11.6%
- viability, T/C [13]: 23.9%
- viability, T/C [14]: 17.5%
- viability, T/C [15]: 15.9%
- viability, T/C [16]: 15%
- viability, T/C [17]: 13.1%
- viability, T/C [18]: 13.2%
- viability, T/C [19]: 21.9%
- viability, T/C [20]: 19.2%
- viability, T/C [21]: 17.8%
- viability, T/C [22]: 15.7%
- viability, T/C [23]: 12.4%
- viability, T/C [24]: 13.3%
- viability, T/C [25]: 21.8%
- viability, T/C [26]: 19.2%
- viability, T/C [27]: 16.8%
- viability, T/C [28]: 13.8%
- viability, T/C [29]: 11.8%
- viability, T/C [30]: 13.2%
- viability, T/C [31]: 18.8%
- viability, T/C [32]: 17.9%
- viability, T/C [33]: 15.3%
- viability, T/C [34]: 12.3%
- viability, T/C [35]: 11.3%
- viability, T/C [36]: 13.7%

SMILES: CCc1c2c(nc3ccc(O)cc13)-c1cc3c(c(=O)n1C2)COC(=O)[C@]3(O)CC + CCn1c(-c2cccnc2C(C)OC)c2c3cc(ccc31)N1CCOC(CC(NC(=O)C(C(C)C)N(C)C(=O)C3(F)CCN(C(=O)C#CC(C)(C)N(C)C)CC3)C(=O)N3CCCC(N3)C(=O)OCC(C)(C)C2)C1
- IC50 (second compound 0.000949 µM): < 0.949 nM
- IC50 (second compound 0.003 µM): < 0.949 nM
- IC50 (second compound 0.00949 µM): < 0.949 nM
- IC50 (second compound 0.03 µM): < 0.949 nM
- IC50 (second compound 0.0949 µM): < 0.949 nM
- IC50 (second compound 0.3 µM): < 0.949 nM
- viability, T/C [1]: 27.9%
- viability, T/C [2]: 13.4%
- viability, T/C [3]: 3.4%
- viability, T/C [4]: 2.46%
- viability, T/C [5]: 1.53%
- viability, T/C [6]: 0.79%
- viability, T/C [7]: 23.4%
- viability, T/C [8]: 12.6%
- viability, T/C [9]: 3.29%
- viability, T/C [10]: 1.82%
- viability, T/C [11]: 1.53%
- viability, T/C [12]: 0.91%
- viability, T/C [13]: 27.1%
- viability, T/C [14]: 11.9%
- viability, T/C [15]: 3.95%
- viability, T/C [16]: 2.01%
- viability, T/C [17]: 1.54%
- viability, T/C [18]: 0.96%
- viability, T/C [19]: 25.5%
- viability, T/C [20]: 12.3%
- viability, T/C [21]: 3.53%
- viability, T/C [22]: 2.17%
- viability, T/C [23]: 1.25%
- viability, T/C [24]: 0.77%
- viability, T/C [25]: 23.6%
- viability, T/C [26]: 8.82%
- viability, T/C [27]: 3.56%
- viability, T/C [28]: 1.45%
- viability, T/C [29]: 0.88%
- viability, T/C [30]: 0.84%
- viability, T/C [31]: 18.7%
- viability, T/C [32]: 7.22%
- viability, T/C [33]: 2.67%
- viability, T/C [34]: 1.54%
- viability, T/C [35]: 1.11%
- viability, T/C [36]: 1.43%
